Assay results as given in patent US20100298141A1, “SUBSTITUTED PYRIDINE N-OXIDE HERBICIDES” (E. I. DU PONT DE NEMOURS AND COMPANY, priority 2007, published 2010).

Assays:
[1] = system: bermudagrass; assay: Test C pre-/postemergence test; format: in vivo, Cynodon dactylon; details: for Plant response rating, Bermudagrass: 31 g ai/ha
In short: (§1)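 Test chemicals were formulated with surfactant in a non-phytotoxic solvent and sprayed both on freshly planted seeds (preemergence) and on 1- to 4-leaf plants of 2–18 cm (postemergence). Flooded-paddy pots received compound directly into 3 cm of standing water, maintained for the test.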

[2] = system: barnyardgrass; assay: Test C flooded paddy test; format: in vivo, Echinochloa crus-galli; details: Flood
In short: (§2)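 Greenhouse pots flooded to 3 cm above soil at time of treatment received compound via the water, which stayed at that level.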

[3] = system: lambsquarters; assay: Test C pre-/postemergence test; format: in vivo, Chenopodium album; details: for Plant response rating, Lambsquarters: 31 g ai/ha, scale 0 to 100 (0 no effect, 100 complete control)
In short: as §1

[4] = system: Italian ryegrass; assay: Test C pre-/postemergence test; format: in vivo, Lolium multiflorum; details: for Plant response rating, Ryegrass, Italian: 31 g ai/ha, scale 0 to 100 (0 no effect, 100 complete control)
In short: as §1

[5] = system: common (oilseed) sunflower; assay: Test C pre-/postemergence test; format: in vivo, Helianthus annuus; details: for Plant response rating, Sunflower: 31 g ai/ha, scale 0 to 100 (0 no effect, 100 complete control)
In short: as §1

[6] = system: giant foxtail; assay: Test A pre-/postemergence greenhouse test; format: in vivo, Setaria faberi; details: for Plant response rating, Foxtail, Giant: 0 to 100 scale where 0 is no effect and 100 is complete control; for Foxtail, Giant plant response rating: 0 to 100 scale
In short: (§3)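 Pots of loam–sand soil sown with the test species are sprayed preemergence on the soil surface; emerged seedlings (1–2 leaves, 2–10 cm) are sprayed postemergence at the same time. The vehicle is a non-phytotoxic solvent mixture with surfactant. Injury is scored visually after ~10 d in greenhouse.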

[7] = system: umbrella sedge; assay: Test C flooded paddy test; format: in vivo, Cyperus difformis; details: Flood
In short: as §2

[8] = system: Surinam grass; assay: Test C pre-/postemergence test; format: in vivo, Brachiaria decumbens; details: for Plant response rating, Surinam Grass: 31 g ai/ha, scale 0 to 100 (0 no effect, 100 complete control)
In short: as §1

[9] = system: soybean; assay: Test C pre-/postemergence test; format: in vivo, Glycine max; details: for Plant response rating, Soybean: 31 g ai/ha, scale 0 to 100 (0 no effect, 100 complete control)
In short: as §1

[10] = system: morningglory; assay: Test A pre-/postemergence greenhouse test; format: in vivo, Ipomoea spp.; details: for Plant response rating, Morningglory: 0 to 100 scale where 0 is no effect and 100 is complete control; for Morningglory plant response rating: 0 to 100 scale
In short: as §3

[11] = system: pigweed; assay: Test C pre-/postemergence test; format: in vivo, Amaranthus retroflexus; details: for Plant response rating, Pigweed: 31 g ai/ha, scale 0 to 100 (0 no effect, 100 complete control)
In short: as §1

[12] = system: crabgrass; assay: Test A pre-/postemergence greenhouse test; format: in vivo, Digitaria sanguinalis; details: for Plant response rating, Crabgrass, Large: 0 to 100 scale where 0 is no effect and 100 is complete control; for Crabgrass, Large plant response rating: 0 to 100 scale
In short: as §3

[13] = system: Goosegrass; assay: Test C pre-/postemergence test; format: in vivo, Eleusin indica; details: for Plant response rating, Goosegrass: 31 g ai/ha, scale 0 to 100 (0 no effect, 100 complete control)
In short: as §1

[14] = system: barnyardgrass; assay: Test A pre-/postemergence greenhouse test; format: in vivo, Echinochloa crus-galli; details: for Plant response rating, Barnyardgrass: 0 to 100 scale where 0 is no effect and 100 is complete control; for Barnyardgrass plant response rating: 0 to 100 scale
In short: as §3

[15] = system: kochia; assay: Test C pre-/postemergence test; format: in vivo, Kochia scoparia; details: for Plant response rating, Kochia: 31 g ai/ha, scale 0 to 100 (0 no effect, 100 complete control)
In short: as §1

[16] = system: cocklebur; assay: Test C pre-/postemergence test; format: in vivo, Xanthium strumarium; details: for Plant response rating, Cocklebur: 31 g ai/ha, scale 0 to 100 (0 no effect, 100 complete control)
In short: as §1

[17] = system: crabgrass; assay: Test C pre-/postemergence test; format: in vivo, Digitaria sanguinalis; details: for Plant response rating, Crabgrass, Large: 31 g ai/ha, scale 0 to 100 (0 no effect, 100 complete control)
In short: as §1

[18] = 62 g ai/ha, Preemergence, scale 0 to 100 (0 no effect, 100 complete control)
[19] = 125 g ai/ha, preemergence, scale 0 (no effect) to 100 (complete control)
[20] = Preemergence, scale 0 to 100 (0 no effect, 100 complete control)
[21] = preemergence, 250 g ai/ha, scale 0 (no effect) to 100 (complete control)
[22] = 62 g ai/ha, scale 0 to 100 (0 no effect, 100 complete control)
[23] = 250 g ai/ha, scale 0 to 100, 0 no effect, 100 complete control, 13 to 15 days
[24] = 62 g ai/ha, Preemergence, scale 0 to 100
[25] = Postemergence, 500 g ai/ha, 0 is no effect, 100 is complete control
[26] = Preemergence, 125 g ai/ha, 0 no effect, 100 complete control

C#CCOc1c(C[S+]([O-])c2cccc[n+]2[O-])c(C(F)(F)F)nn1C (centres unmarked) [Compound 76]
Bermudagrass plant response rating [1, 18]: 100
Bermudagrass plant response rating [1, 19]: 100
Plant response rating, Bermudagrass [1, 20]: 80
Bermudagrass plant response rating [1, 21]: 100
Plant response rating, Barnyardgrass [2, 22]: 0
Plant response rating, Barnyardgrass [2, 23]: 20
Lambsquarters plant response rating [3, 24]: 100
Lambsquarters plant response rating [3, 19]: 100
Plant response rating, Lambsquarters ([3]; Preemergence): 85
Lambsquarters plant response rating [3, 21]: 100
Ryegrass, Italian plant response rating [4, 24]: 50
Ryegrass, Italian plant response rating [4, 19]: 70
Plant response rating, Ryegrass, Italian ([4]; Preemergence): 0
Ryegrass, Italian plant response rating [4, 21]: 100
Sunflower plant response rating [5, 24]: 35
Sunflower plant response rating [5, 19]: 50
Plant response rating, Sunflower ([5]; Preemergence): 0
Sunflower plant response rating [5, 21]: 70
Plant response rating, Foxtail, Giant ([6]; Postemergence, 125 g ai/ha): 80
Foxtail, Giant plant response rating [6, 25]: 90
Foxtail, Giant plant response rating [6, 26]: 90
Plant response rating, Foxtail, Giant ([6]; Preemergence, 500 g ai/ha): 100
Plant response rating, Sedge, Umbrella [7, 22]: 0
Plant response rating, Sedge, Umbrella [7, 23]: 100
Surinam Grass plant response rating [8, 24]: 85
Surinam Grass plant response rating [8, 19]: 85
Plant response rating, Surinam Grass ([8]; Preemergence): 0
Surinam Grass plant response rating [8, 21]: 100
Soybean plant response rating [9, 24]: 40
Soybean plant response rating [9, 19]: 80
Plant response rating, Soybean ([9]; Preemergence): 0
Soybean plant response rating [9, 21]: 95
Plant response rating, Morningglory ([10]; Postemergence, 125 g ai/ha): 70
Morningglory plant response rating [10, 25]: 90
Morningglory plant response rating [10, 26]: 50
Plant response rating, Morningglory ([10]; Preemergence, 500 g ai/ha): 90
Pigweed plant response rating [11, 24]: 80
Pigweed plant response rating [11, 19]: 80
Plant response rating, Pigweed ([11]; Preemergence): 50
Pigweed plant response rating [11, 21]: 100
Plant response rating, Crabgrass, Large ([12]; Postemergence, 125 g ai/ha): 50
Crabgrass, Large plant response rating [12, 25]: 90
Crabgrass, Large plant response rating [12, 26]: 80
Plant response rating, Crabgrass, Large ([12]; Preemergence, 500 g ai/ha): 90
Goosegrass plant response rating [13, 24]: 95
Goosegrass plant response rating [13, 19]: 98
Plant response rating, Goosegrass ([13]; Preemergence): 80
Goosegrass plant response rating [13, 21]: 100
Plant response rating, Barnyardgrass ([14]; Postemergence, 125 g ai/ha): 70
Barnyardgrass plant response rating [14, 25]: 80
Barnyardgrass plant response rating [14, 26]: 80
Plant response rating, Barnyardgrass ([14]; Preemergence, 500 g ai/ha): 100
Kochia plant response rating [15, 24]: 100
Kochia plant response rating [15, 19]: 100
Plant response rating, Kochia ([15]; Preemergence): 70
Kochia plant response rating [15, 21]: 100
Cocklebur plant response rating [16, 24]: 0
Cocklebur plant response rating [16, 19]: 0
Plant response rating, Cocklebur ([16]; Preemergence): 0
Cocklebur plant response rating [16, 21]: 10
Crabgrass, Large plant response rating [17, 24]: 85
Crabgrass, Large plant response rating [17, 19]: 98
Plant response rating, Crabgrass, Large ([17]; Preemergence): 85
Crabgrass, Large plant response rating [17, 21]: 100

Cc1cc[n+]([O-])c(S(=O)(=O)Cc2c(C(F)(F)F)nn(C)c2OCC(F)F)c1 [Compound 94]
Bermudagrass plant response rating [1, 18]: 100
Bermudagrass plant response rating [1, 19]: 100
Plant response rating, Bermudagrass [1, 20]: 90
Bermudagrass plant response rating [1, 21]: 100
Plant response rating, Barnyardgrass [2, 22]: 0
Plant response rating, Barnyardgrass [2, 23]: 0
Lambsquarters plant response rating [3, 24]: 90
Lambsquarters plant response rating [3, 19]: 100
Plant response rating, Lambsquarters ([3]; Preemergence): 90
Lambsquarters plant response rating [3, 21]: 100
Ryegrass, Italian plant response rating [4, 24]: 70
Ryegrass, Italian plant response rating [4, 19]: 90
Plant response rating, Ryegrass, Italian ([4]; Preemergence): 0
Ryegrass, Italian plant response rating [4, 21]: 98
Sunflower plant response rating [5, 24]: 0
Sunflower plant response rating [5, 19]: 45
Plant response rating, Sunflower ([5]; Preemergence): 0
Sunflower plant response rating [5, 21]: 80
Plant response rating, Foxtail, Giant ([6]; Postemergence, 125 g ai/ha): 50
Foxtail, Giant plant response rating [6, 25]: 80
Foxtail, Giant plant response rating [6, 26]: 100
Plant response rating, Foxtail, Giant ([6]; Preemergence, 500 g ai/ha): 100
Plant response rating, Sedge, Umbrella [7, 22]: 0
Plant response rating, Sedge, Umbrella [7, 23]: 90
Surinam Grass plant response rating [8, 24]: 90
Surinam Grass plant response rating [8, 19]: 90
Plant response rating, Surinam Grass ([8]; Preemergence): 90
Surinam Grass plant response rating [8, 21]: 100
Soybean plant response rating [9, 24]: 30
Soybean plant response rating [9, 19]: 30
Plant response rating, Soybean ([9]; Preemergence): 0
Soybean plant response rating [9, 21]: 80
Plant response rating, Morningglory ([10]; Postemergence, 125 g ai/ha): 50
Morningglory plant response rating [10, 25]: 60
Morningglory plant response rating [10, 26]: 50
Plant response rating, Morningglory ([10]; Preemergence, 500 g ai/ha): 100
Pigweed plant response rating [11, 24]: 90
Pigweed plant response rating [11, 19]: 100
Plant response rating, Pigweed ([11]; Preemergence): 60
Pigweed plant response rating [11, 21]: 100
Plant response rating, Crabgrass, Large ([12]; Postemergence, 125 g ai/ha): 70
Crabgrass, Large plant response rating [12, 25]: 90
Crabgrass, Large plant response rating [12, 26]: 90
Plant response rating, Crabgrass, Large ([12]; Preemergence, 500 g ai/ha): 100
Goosegrass plant response rating [13, 24]: 100
Goosegrass plant response rating [13, 19]: 100
Plant response rating, Goosegrass ([13]; Preemergence): 95
Goosegrass plant response rating [13, 21]: 100
Plant response rating, Barnyardgrass ([14]; Postemergence, 125 g ai/ha): 60
Barnyardgrass plant response rating [14, 25]: 90
Barnyardgrass plant response rating [14, 26]: 70
Plant response rating, Barnyardgrass ([14]; Preemergence, 500 g ai/ha): 100
Kochia plant response rating [15, 24]: 100
Kochia plant response rating [15, 19]: 100
Plant response rating, Kochia ([15]; Preemergence): 85
Kochia plant response rating [15, 21]: 100
Cocklebur plant response rating [16, 24]: 0
Cocklebur plant response rating [16, 19]: 0
Plant response rating, Cocklebur ([16]; Preemergence): 0
Cocklebur plant response rating [16, 21]: 0
Crabgrass, Large plant response rating [17, 24]: 98
Crabgrass, Large plant response rating [17, 19]: 100
Plant response rating, Crabgrass, Large ([17]; Preemergence): 20
Crabgrass, Large plant response rating [17, 21]: 100
